According to ChEMBL document CHEMBL1156803, “Novel 3-arylideneindolin-2-ones as inhibitors of NAD+ -dependent histone deacetylases (sirtuins)” (J Med Chem, 2010):
Calls of active or inactive are those of the source. No cut-off for these calls is given here.

Tests used:
[1] = target: T1, NAD-dependent protein deacetylase sirtuin-1 (Homo sapiens) (UniProt Q96EB6); test: Inhibition of human recombinant N-terminally GST-tagged SIRT1 at 50 uM after 4 hrs in presence of NAD+ by fluorescent deacetylase assay
T1 sequence (whole entry): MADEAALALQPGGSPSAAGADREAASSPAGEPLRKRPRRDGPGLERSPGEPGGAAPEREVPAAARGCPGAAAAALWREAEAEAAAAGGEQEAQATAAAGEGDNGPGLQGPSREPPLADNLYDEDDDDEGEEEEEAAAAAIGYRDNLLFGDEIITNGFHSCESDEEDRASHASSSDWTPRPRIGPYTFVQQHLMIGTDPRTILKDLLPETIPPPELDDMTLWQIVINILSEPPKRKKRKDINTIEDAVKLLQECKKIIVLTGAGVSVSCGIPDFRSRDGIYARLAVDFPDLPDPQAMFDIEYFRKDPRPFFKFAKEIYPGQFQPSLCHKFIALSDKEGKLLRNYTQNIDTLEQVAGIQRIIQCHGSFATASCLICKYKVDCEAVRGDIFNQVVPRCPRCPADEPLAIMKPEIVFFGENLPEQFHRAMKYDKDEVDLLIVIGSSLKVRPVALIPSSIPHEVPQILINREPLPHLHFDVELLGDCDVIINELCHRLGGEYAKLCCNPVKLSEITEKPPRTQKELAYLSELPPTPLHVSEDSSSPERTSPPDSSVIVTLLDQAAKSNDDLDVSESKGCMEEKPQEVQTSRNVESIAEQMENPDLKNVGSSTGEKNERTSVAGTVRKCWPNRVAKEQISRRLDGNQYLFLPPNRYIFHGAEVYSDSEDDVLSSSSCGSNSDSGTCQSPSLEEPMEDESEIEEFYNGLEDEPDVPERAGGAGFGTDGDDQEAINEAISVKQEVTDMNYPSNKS

[2] = target: T2, NAD-dependent protein deacetylase sirtuin-3, mitochondrial (Homo sapiens) (UniProt Q9NTG7); test: Inhibition of human recombinant N-terminally 6X-His-tagged SIRT3 at 50 uM after 4 hrs in presence of NAD+ by fluorescent deacetylase assay
T2 sequence (whole entry): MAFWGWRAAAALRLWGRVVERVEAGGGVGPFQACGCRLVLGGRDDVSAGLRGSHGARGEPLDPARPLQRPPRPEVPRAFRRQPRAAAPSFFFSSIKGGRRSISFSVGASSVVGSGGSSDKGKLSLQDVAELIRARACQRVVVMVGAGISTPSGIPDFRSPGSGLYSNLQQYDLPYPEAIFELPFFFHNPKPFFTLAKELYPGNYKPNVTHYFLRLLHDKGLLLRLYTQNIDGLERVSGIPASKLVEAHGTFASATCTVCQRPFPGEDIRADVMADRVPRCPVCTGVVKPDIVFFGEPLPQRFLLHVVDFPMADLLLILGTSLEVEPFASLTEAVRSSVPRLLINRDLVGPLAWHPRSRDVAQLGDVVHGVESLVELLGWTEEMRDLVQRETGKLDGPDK

[3] = target: T3, NAD-dependent protein deacetylase sirtuin-2 (Homo sapiens) (UniProt Q8IXJ6); test: Inhibition of human recombinant N-terminally 6X-His-tagged SIRT2 at 50 uM after 4 hrs in presence of NAD+ by fluorescent deacetylase assay
T3 sequence (whole entry): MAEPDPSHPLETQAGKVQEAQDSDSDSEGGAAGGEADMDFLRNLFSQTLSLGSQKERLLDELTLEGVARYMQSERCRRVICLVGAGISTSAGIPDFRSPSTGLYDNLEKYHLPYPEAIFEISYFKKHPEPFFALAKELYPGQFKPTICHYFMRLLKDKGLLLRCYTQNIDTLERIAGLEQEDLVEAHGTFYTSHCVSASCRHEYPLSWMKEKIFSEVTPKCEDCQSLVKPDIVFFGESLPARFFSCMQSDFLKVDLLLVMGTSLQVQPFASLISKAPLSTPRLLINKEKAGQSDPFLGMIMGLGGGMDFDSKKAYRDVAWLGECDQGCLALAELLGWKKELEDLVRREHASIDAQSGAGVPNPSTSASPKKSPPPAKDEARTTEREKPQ

[4] = target: T4, NAD-dependent protein deacetylase sirtuin-2 (Homo sapiens, UniProt Q8IXJ6); test: Inhibition of human recombinant N-terminally 6X-His-tagged SIRT2 after 4 hrs in presence of NAD+ by fluorescent deacetylase assay
T4 sequence (Q8IXJ6 whole entry): T3 sequence (whole entry)

[5] = target: T3, NAD-dependent protein deacetylase sirtuin-2 (Homo sapiens); test: Inhibition of SIRT2 in human HepG2 cells assessed as alpha-tubulin hyperacetylation after 6 hrs by ELISA; assay type: cell-based
HepG2 = test: Toxicity in human HepG2 cells after 6 hrs; assay type: cell-based; settings: hepg2, 6 h
[6] = target: T5, NAD-dependent protein deacetylase sirtuin-1 (Homo sapiens, UniProt Q96EB6); test: Inhibition of human recombinant N-terminally GST-tagged SIRT1 after 4 hrs in presence of NAD+ by fluorescent deacetylase assay
T5 sequence (Q96EB6 whole entry): T1 sequence (whole entry)

[7] = target: T3, NAD-dependent protein deacetylase sirtuin-2 (Homo sapiens); test: Inhibition of SIRT2 in human MCF7 cells assessed as tubulin hyperacetylation at 10 uM after 16 hrs by Western blot; assay type: cell-based
[8] = target: T3, NAD-dependent protein deacetylase sirtuin-2 (Homo sapiens); test: Inhibition of SIRT2 in human MCF7 cells assessed as tubulin hyperacetylation at 0.1 uM after 16 hrs by Western blot; assay type: cell-based

SMILES | inhibition [1] [%] | inhibition [2] [%] | inhibition [3] [%] | other results
COc1cc(/C=C2\C(=O)Nc3c2ccc(Cl)c3Cl)cc(OC)c1OC | < 10 | < 10 | < 10 | –
O=C1Nc2c(ccc(Cl)c2Cl)/C1=C\c1ccncc1 | 19.6 | < 10 | 16.5 | –
O=C1Nc2c(ccc(Cl)c2Cl)/C1=C/c1ccc(O)cc1 | < 10 | 13.5 | 34.7 | –
O=C1Nc2c(ccc(Cl)c2Cl)/C1=C/c1cc(C(F)(F)F)cc(C(F)(F)F)c1 | 19.8 | < 10 | – | –
O=C1Nc2c(ccc(Cl)c2Cl)/C1=C/c1ccc([N+](=O)[O-])cc1 | 30.2 | < 10 | – | IC50 [4]: 10.4 µM
O=C1Nc2c(ccc(Cl)c2Cl)/C1=C/c1ccc(F)cc1 | 24.4 | < 10 | – | Activity [5]: inactive; Activity (HepG2): Non-toxic
O=C1Nc2c(ccc(Cl)c2Cl)/C1=C\c1ccccn1 | 22.7 | < 10 | 20.6 | –
O=C1Nc2c(ccc(Cl)c2Cl)/C1=C/c1cc(Br)c(O)c(Br)c1 | – | – | – | IC50 [6]: 40.6 µM; IC50 [4]: 28.4 µM; Activity [5]: Active; Activity (HepG2): Non-toxic
Cn1cc(C2=C(c3cn(CCCSC(=N)N)c4ccccc34)C(=O)NC2=O)c2ccccc21 | – | – | – | Activity [7]: Active
O=C1Nc2c(ccc(Cl)c2Cl)/C1=C/c1ccc(C(F)(F)F)cc1 | 45.4 | < 10 | 18.3 | –
Cc1cc(C)c(/C=C2\C(=O)Nc3c2ccc(Cl)c3Cl)[nH]1 | 19.9 | < 10 | – | –
CCN(CC)CCNC(=O)c1c(C)[nH]c(/C=C2\C(=O)Nc3ccc(F)cc32)c1C [SUNITINIB] | < 10 | 26.4 | – | IC50 [4]: 123 µM
CN(C)c1ccc(/C=C2\C(=O)Nc3c2ccc(Cl)c3Cl)cc1 | 20.7 | < 10 | < 10 | –
Cn1c2c(Cl)c(Cl)ccc2c2cc[nH]c(=O)c21 [BAUERINE C] | < 10 | < 10 | – | –
CC(/C=C/C(=O)NO)=C\[C@@H](C)C(=O)c1ccc(N(C)C)cc1 | – | – | – | Activity [8]: Active
